Results on 48 molecules are retold here after patent US9771378B2 (Denali Therapeutics, Inc., priority 2014, dated 2017).

pIC50: −log10 of the molar value.

For this assay, the system named is Aβ42 (human neuroglioma H4 cells expressing human wild type APP751). Description: In vitro cell screening assay with sandwich ELISA quantification of Aβ42 peptide. The class given is cell-based. The settings on record: H4 cells stably expressing human wild type APP751; Pro293 chemically defined medium; compounds 0.003-10 μM; incubated overnight (16-18 h); supernatant Aβ42 by sandwich ELISA; normalized to DMSO and DAPT; read-out: Aβ42 H4 Prot Fre IC50. In outline: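 H4 neuroglioma cells stably expressing human wild-type APP751 were treated in Pro293 medium with compounds (0.003-10 μM, 0.33% DMSO) for 16-18 h at 37° C. Secreted Aβ42 measured by sandwich ELISA (C-terminal capture, 4G8-HRP detection, TMB, 450 nm). IC50 by variable-slope sigmoidal regression on percent of DMSO control.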
For orientation: An ELISA detects its analyte on a solid surface through an enzyme-linked reagent.
On to `COc1cc(Nc2ncc3c(n2)N(C)C(c2ccc(F)cc2F)CO3)ccc1-c1ccnc(C)c1` (single isomer, unassigned; (-)) [Example 63A], for which the pIC50 – broadly, −log10 of the IC50, conventionally taken in molar units – was 6.27.
Turning to `COc1cc(Nc2ncc3c(n2)N(C)C(c2ccc(Cl)cc2C(F)(F)F)CO3)ccc1-n1cnc(C)c1` (single isomer, unassigned; (+)) [Example 112B], the pIC50 was 7.19.
As to `COc1cc(Nc2ncc3c(n2)N(C)C(c2cc(F)cc(F)c2)CO3)ccc1-n1cnc(C)c1` (racemic) [Example 30], the pIC50 is 7.74.
As to `COc1cc(Nc2ncc3c(n2)N(C)C(c2ccc(F)cc2F)CO3)cnc1-n1cnc(C)c1` (single isomer, unassigned; (-)) [Example 186B], the negative logarithm of the IC50 (pIC50) was 6.48.
Consider `COc1cc(Nc2ncc3c(n2)N(C)C(c2ccccc2C)CO3)ccc1-c1ccnc(C)c1` (single isomer, unassigned; (-)) [Example 35A], for which the pIC50 is 6.45.
In the case of `COc1cc(Nc2ncc3c(n2)N(C)[C@@H](C(C)(C)C)CO3)cnc1-n1cnc(C)c1` [Example 246] it was 7.62; in that of `COc1cc(Nc2ncc3c(n2)N(C)C(c2cc(F)cc(F)c2)CO3)ccc1-n1cnc(Cl)c1` (single isomer, unassigned; (-)) [Example 204A], 6.36.
Turning to `Cc1cn(-c2ccc(Nc3ncc4c(n3)N(C)C(c3cc(F)cc(F)c3)CO4)cc2OC(F)(F)F)cn1` (single isomer, unassigned; (-)) [Example 223A], the pIC50 was under 5.52.
With `COc1cc(Nc2ncc3c(n2)N(C)C(C2CCOCC2)CO3)ccc1-n1cnc(C)c1` (single isomer, unassigned; (-)) [Example 114A], the negative-log IC50 (pIC50) is 6.31.
Consider `CN1c2nc(Nc3ccc(C#N)cc3)ncc2OCC1C(F)(F)F` (single isomer, unassigned; (-)) [Example 226B, (−)-4-((8-methyl-7-(trifluoromethyl)-7,8-dihydro-6H-pyrimido [5,4-b] [1, 4]oxazin-2-yl)amino) benzonitrile], for which the negative-log IC50 (pIC50) is under 5.52.
In the case of `Cc1cn(-c2ccc(Nc3ncc4c(n3)N(C)C(c3ccccc3C)CO4)cc2)cn1` (racemic) [Example 43] it was 6.67; in that of `Cc1cn(-c2ccc(Nc3ncc4c(n3)N(C)C(c3cc(F)cc(F)c3)CO4)cc2)cn1` (single isomer, unassigned; (+)) [Example 23B], 7.49; in that of `COc1cc(Nc2ncc3c(n2)N(C)C(Cc2ccccc2)CO3)ccc1-c1ccnc(C)c1` (single isomer, unassigned; (-)) [Example 68B], 6.64.
As for `Cc1cn(-c2ccc(Nc3ncc4c(n3)N3CCOC[C@H]3CO4)cc2F)cn1` [Example 299], the pIC50 is under 5.52.
Consider `COc1cc(Nc2ncc3c(n2)N(C)C(C(F)(F)F)CO3)ccc1-n1cnc(Cl)c1` (single isomer, unassigned; (-)) [Example 228B], for which the negative-log IC50 (pIC50) is 7.85.
As to `COc1cc(Cl)c(C2COc3cnc(Nc4ccc(-n5cnc(C)c5)c(OC)c4)nc3N2C)cc1Cl` (single isomer, unassigned; (+)) [Example 174B], the negative logarithm of the IC50 (pIC50) was 7.49.
In the case of `Cc1cn(-c2ccc(Nc3ncc4c(n3)N3CCOC[C@@H]3CO4)cc2F)cn1` [Example 300], the pIC50 is 6.11.
In the case of `Cc1cn(-c2ccc(Nc3ncc4c(n3)N(C)C(c3ccc(F)cc3Cl)CO4)cc2F)cn1` (single isomer, unassigned; (+)) [Example 101A] it was 7.12; in that of `Cc1cn(-c2ccc(Nc3ncc4c(n3)N3CCC[C@]3(C)CO4)cc2F)cn1` [Example 293, (R)-N-(3-fluoro-4-(4-methyl-1H-imidazol-1-yl)phenyl)-6a-methyl-6a, 7,8,9-tetrahydro-6H-pyrimido [5,4-b] pyrrolo [1,2-d] [1, 4] oxazin-2-amine], 6.56; in that of `Cc1cc(-c2ccc(Nc3ncc4c(n3)N(C)C(c3cc(F)c(F)c(F)c3)CO4)cc2F)ccn1` (single isomer, unassigned; (-)) [Example 36B], 5.90.
In the case of `Cc1cn(-c2ccc(Nc3ncc4c(n3)N(C)C(c3ccccc3C)CO4)cc2F)cn1` (racemic) [Example 34] it was 7.36; in that of `Cc1cc(-c2ccc(Nc3ncc4c(n3)N(C)C(c3cc(F)c(F)c(F)c3)CO4)cc2)ccn1` (single isomer, unassigned; (-)) [Example 37B], 5.81.
Regarding `COc1cc(Nc2ncc3c(n2)N(C)C(C2CCS(=O)(=O)CC2)CO3)ccc1-n1cnc(C)c1` (single isomer, unassigned; (+)) [Example 239B, (+)-4-(2-((3-methoxy-4-(4-methyl-1H-imidazol-1-yl)phenyl)amino)-8-methyl-7,8-dihydro-6H-pyrimido [5,4-b] [1, 4]oxazin-7-yl) tetrahydro-2H-thiopyran 1,1-dioxide], the pIC50 is 6.42.
In the case of `Cc1cn(-c2ccc(Nc3ncc4c(n3)N(C)C(c3ccccc3C(F)(F)F)CO4)cc2F)cn1` (single isomer, unassigned; (+)) [Example 84A], the pIC50 was 6.69.
In the case of `Cc1cn(-c2ccc(Nc3ncc4c(n3)N(C)C(C3CCOCC3)CO4)cc2F)cn1` (single isomer, unassigned; (+)) [Example 109A], the pIC50 is 6.67.
With `COc1cc(Nc2ncc3c(n2)N(C)C(C2CC(F)(F)C2)CO3)cnc1-n1cnc(C)c1` (single isomer, unassigned; (-)) [Example 219B], the pIC50 is 6.40.
On to `COc1cc(Nc2ncc3c(n2)N(C)C(c2ccccc2Cl)CO3)ccc1-n1cnc(C)c1` (single isomer, unassigned; (-)) [Example 51A], for which the pIC50 is 7.55.
In the case of `COc1cc(Nc2ncc3c(n2)N(C)C(c2ccccc2)CO3)ccc1-c1ccnc(C)c1` (racemic) [Example 46, N-(3-methoxy-4-(2-methylpyridin-4-yl)phenyl)-8-methyl-7-phenyl-7,8-dihydro-6H-pyrimido[5,4-b][1,4]oxazin-2-amine], the negative-log IC50 (pIC50) was 7.32.
As for `COc1cc(Nc2ncc3c(n2)N(C)C(c2ccccc2OC(F)(F)F)CO3)ccc1-n1cnc(C)c1` (single isomer, unassigned; (-)) [Example 60A], the figure is 7.04.
Consider `COc1cc(Nc2ncc3c(n2)N(C)C2(CCCC2)CO3)cnc1-n1cnc(C)c1` [Example 259], for which the pIC50 was 7.14.
Regarding `COc1cc(Nc2ncc3c(n2)N(C)C(CC(F)(F)F)CO3)cnc1-n1cnc(C)c1` (single isomer, unassigned; (-)) [Example 238A], the pIC50 is 6.19.
Take `Cc1cn(-c2ccc(Nc3ncc4c(n3)N(C)C(c3cc(F)cc(F)c3)CO4)cc2F)cn1` (single isomer, unassigned; (+)) [Example 33A]: the pIC50 is 7.85.
As for `Cc1cc(-c2ccc(Nc3ncc4c(n3)N(C)C(c3ccc(F)cc3F)CO4)cc2F)ccn1` (single isomer, unassigned; (-)) [Example 66B], the figure is 5.96.
Take `Cc1cc(-c2ccc(Nc3ncc4c(n3)N(C)C(c3ccccc3C)CO4)cc2)ccn1` (single isomer, unassigned; (-)) [Example 29A]: the pIC50 was 5.96.
For `Cc1cc(-c2ccc(Nc3ncc4c(n3)N(C)C(c3cc(F)cc(F)c3)CO4)cc2F)ccn1` (racemic) [Example 41], the negative logarithm of the IC50 (pIC50) was 7.20.
As for `COc1nc(Nc2ncc3c(n2)N(C)C(c2cc(F)c(F)c(F)c2)CO3)ccc1-n1cnc(C)c1` (single isomer, unassigned; (+)) [Example 188B], the figure is 6.56; as for `COc1cc(Nc2ncc3c(n2)N(C)C2(CC2)CO3)cnc1-n1cnc(C)c1` [Example 260], 6.67; as for `COc1cc(Nc2ncc3c(n2)N(C)C(c2cc(F)c(F)c(F)c2)CO3)ccc1-c1ccnc(C)c1` (racemic) [Example 39], 7.46.
As to `Cc1cn(-c2ccc(Nc3ncc4c(n3)N(C)C(c3ccc(Cl)cc3Cl)CO4)cc2F)cn1` (single isomer, unassigned; (-)) [Example 96B], the negative logarithm of the IC50 (pIC50) was 6.06.
Consider `COc1nc(Nc2ncc3c(n2)N(C)C(c2cc(F)cc(F)c2)CO3)ccc1-c1ccnc(C)n1` (single isomer, unassigned; (-)) [Example 183B], for which the pIC50 was under 5.52.
For the molecule `Cc1cn(-c2ccc(Nc3ncc4c(n3)N(C)C(Cc3ccccc3)CO4)cc2F)cn1` (single isomer, unassigned; (-)) [Example 59B], the pIC50 is 6.34.
Regarding `Cc1cc(-c2ccc(Nc3ncc4c(n3)N(C)C(c3ccccc3)CO4)cc2F)ccn1` (single isomer, unassigned; (+)) [Example 27A], the pIC50 is 6.51.
As for `COc1ccc(Cl)c(C2COc3cnc(Nc4ccc(-n5cnc(C)c5)c(OC)c4)nc3N2C)c1` (single isomer, unassigned; (-)) [Example 167B], the negative logarithm of the IC50 (pIC50) was 7.12.
In the case of `COc1cc(Nc2ncc3c(n2)N(C)C(c2ccc(F)cc2C)CO3)ccc1-n1cnc(C)c1` (single isomer, unassigned; (-)) [Example 117A], the pIC50 is 6.85.
Turning to `Cc1cn(-c2ccc(Nc3ncc4c(n3)N(C)C(C(F)(F)F)CO4)cc2C#N)cn1` (single isomer, unassigned; (-)) [Example 232B, (−)-2-(4-methyl-1H-imidazol-1-yl)-5-((8-methyl-7-(trifluoromethyl)-7,8-dihydro-6H-pyrimido [5,4-b] [1, 4]oxazin-2-yl)amino) benzonitrile], the negative logarithm of the IC50 (pIC50) is 7.77.
For the molecule `COc1cc(Nc2ncc3c(n2)N(C)C(C2COC2)CO3)ccc1-n1cnc(C)c1` (single isomer, unassigned; (-)) [Example 241A], the negative-log IC50 (pIC50) is 6.41.
In the case of `COc1cc(Nc2ncc3c(n2)N(C)C(C)(C)CO3)cnc1-n1cnc(C)c1` [Example 261], the negative logarithm of the IC50 (pIC50) was 6.86.
As for `COc1cc(Nc2ncc3c(n2)N(C)C(C(F)(F)F)CO3)ccc1-n1cnc(Cl)c1` (single isomer, unassigned; (+)) [Example 228A], the figure is 6.48.
